Results reported in patent US12240844B2 (Voronoi, Inc., priority 2019, dated 2025).

Assays:
[1] = target: T1, human GST-DYRK1A (full length) (Homo sapiens, UniProt Q13627); test: GST-DYRK1A enzyme inhibition, ADP-Glo kinase assay; type: biochemical; details: read-out: DYRK1 IC50
T1 construct: purified human GST-DYRK1A (full length, Thermo scientifics) enzyme; GST; purchased Thermo scientifics
Procedure, shortened: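 ADP-Glo luminescence quantified kinase activity after a 1 h, 25° C reaction of 10 ng full-length GST-tagged human DYRK1A, substrate and 10 uM ATP in Tris-HCl buffer pH 7.4 with MgCl2, BSA and DTT. Triplicate IC50 values (nM) calculated relative to untreated solvent control.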

[2] = target: LRRK2 (G2019S) (Homo sapiens, UniProt Q5S007, G2019S); test: LRRK2 G2019S enzyme inhibition, ADP-Glo kinase assay; type: biochemical; set-up: purchased SignalChem L10-12GG
LRRK2 (G2019S), sequence (Q5S007 970-2527 G2019S limits assumed): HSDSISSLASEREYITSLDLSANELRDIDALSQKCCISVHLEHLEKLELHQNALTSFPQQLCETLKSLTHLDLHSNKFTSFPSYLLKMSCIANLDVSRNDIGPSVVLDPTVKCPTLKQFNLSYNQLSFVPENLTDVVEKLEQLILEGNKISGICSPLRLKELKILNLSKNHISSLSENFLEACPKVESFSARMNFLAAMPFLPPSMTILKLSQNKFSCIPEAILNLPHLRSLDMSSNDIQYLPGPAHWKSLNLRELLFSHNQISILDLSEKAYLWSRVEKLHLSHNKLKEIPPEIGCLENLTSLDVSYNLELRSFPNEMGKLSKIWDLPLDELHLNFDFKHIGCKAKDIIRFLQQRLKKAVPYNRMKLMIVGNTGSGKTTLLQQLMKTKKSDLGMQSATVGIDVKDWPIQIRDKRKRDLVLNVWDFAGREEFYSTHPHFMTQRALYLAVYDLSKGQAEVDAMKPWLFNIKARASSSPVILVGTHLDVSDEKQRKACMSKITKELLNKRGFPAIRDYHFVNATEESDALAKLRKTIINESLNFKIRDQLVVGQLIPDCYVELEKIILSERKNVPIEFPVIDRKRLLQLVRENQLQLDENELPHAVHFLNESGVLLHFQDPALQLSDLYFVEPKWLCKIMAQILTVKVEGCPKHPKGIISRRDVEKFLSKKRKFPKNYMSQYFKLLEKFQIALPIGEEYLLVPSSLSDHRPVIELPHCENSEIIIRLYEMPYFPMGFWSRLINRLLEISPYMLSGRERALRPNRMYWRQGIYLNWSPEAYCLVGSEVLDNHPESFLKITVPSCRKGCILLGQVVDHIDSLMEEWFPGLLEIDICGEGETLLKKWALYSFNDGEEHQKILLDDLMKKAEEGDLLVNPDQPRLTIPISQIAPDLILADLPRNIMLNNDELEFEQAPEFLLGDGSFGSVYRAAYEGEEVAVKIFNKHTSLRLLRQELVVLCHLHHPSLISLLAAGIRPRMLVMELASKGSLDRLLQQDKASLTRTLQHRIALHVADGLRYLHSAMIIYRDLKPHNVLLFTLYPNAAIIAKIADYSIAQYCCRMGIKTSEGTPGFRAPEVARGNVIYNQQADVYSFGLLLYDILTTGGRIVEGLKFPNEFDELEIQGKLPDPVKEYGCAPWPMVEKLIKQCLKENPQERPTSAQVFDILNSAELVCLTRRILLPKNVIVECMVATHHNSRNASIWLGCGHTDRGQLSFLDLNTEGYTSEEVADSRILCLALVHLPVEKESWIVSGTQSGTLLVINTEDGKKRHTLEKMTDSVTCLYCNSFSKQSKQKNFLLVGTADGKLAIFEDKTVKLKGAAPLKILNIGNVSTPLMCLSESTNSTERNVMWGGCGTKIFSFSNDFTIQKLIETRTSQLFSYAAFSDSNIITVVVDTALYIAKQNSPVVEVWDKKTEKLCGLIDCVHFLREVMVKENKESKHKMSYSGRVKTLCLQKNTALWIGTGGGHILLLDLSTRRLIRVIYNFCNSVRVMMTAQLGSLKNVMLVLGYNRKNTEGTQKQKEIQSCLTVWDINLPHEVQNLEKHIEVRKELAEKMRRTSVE
Procedure, shortened: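 Activity read as ADP-Glo luminescence, normalized to untreated solvent control, with IC50 (nM) fitted over 12 final compound levels (top 50 μM). Reaction: 2 h, 25° C, human LRRK2 G2019S 16 ng, ATP 25 μM, substrate 0.2 μg, in Tris-HCl pH 7.4 with MgCl2, BSA and DTT.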

[3] = test system: TNF-α; test: TNF-α secretion inhibition in LPS-treated THP-1 cells (ELISA); type: cell-based; details: Homo sapiens, compound 0.5 μM, LPS 500 ng/ml, 24 hours, read-out: THP-1/TNF-a (% inhib)
Protocol: (§1) In order to evaluate the cytokine secretion inhibitory efficacy of mononuclear cells, THP-1 cells (ATCC, #TIB-202) as a human-derived monocyte cell line were cultured in RPMI-1640 (Hyclone, SH30027.01) media in which 10% fetal bovine serum (Hyclone, SH30084.03), 1% penicillin streptomycin (Welgene, LS202-02) and 50 μM 2-Mercaptoethanol (Gibco, #21985023) were contained. In the test, 1.5-2×10^5 cells/250 μl per each well were dispensed in a 48-well plate (SPL, #30048) and incubated in an incubator at 37° C. and 5% CO2 for 16 hours, and then the compounds were diluted in DMSO so that the final concentration was 0.5 μM. It was treated with Lipopolysaccharides (LPS) (sigma, #L6529) […]. After treatment with the compound, the LPS was treated so that the final concentration was 500 ng/ml, and then the cell culture fluid was collected after culturing for 24 hours, and the degrees of the cytokines IL-6 (R&D system, #D6050) and TNF-α (R&D system, #DTA00D) contained in the culture fluid were collected using each ELISA kit. After performing the experiment according to the manufacturer's instructions, the absorbance at 450 nm was measured and analyzed using a microplate reader.

[4] = test system: IL-6; test: IL-6 secretion inhibition in LPS-treated THP-1 cells (ELISA); type: cell-based; details: Homo sapiens, compound 0.5 μM, LPS 500 ng/ml, 24 hours, read-out: THP1/IL6 (% inhib)
Protocol: as §1

[5] = target: T2, human GST-CLK1 (129-end) (Homo sapiens, UniProt P49759); test: GST-CLK1 enzyme inhibition, ADP-Glo kinase assay; type: biochemical; details: ATP 10 uM
T2 construct: purified human GST-CLK1 (129-end, Signalchem) enzyme; GST; purchased Signalchem
T2 sequence (P49759 129-484 limits assumed): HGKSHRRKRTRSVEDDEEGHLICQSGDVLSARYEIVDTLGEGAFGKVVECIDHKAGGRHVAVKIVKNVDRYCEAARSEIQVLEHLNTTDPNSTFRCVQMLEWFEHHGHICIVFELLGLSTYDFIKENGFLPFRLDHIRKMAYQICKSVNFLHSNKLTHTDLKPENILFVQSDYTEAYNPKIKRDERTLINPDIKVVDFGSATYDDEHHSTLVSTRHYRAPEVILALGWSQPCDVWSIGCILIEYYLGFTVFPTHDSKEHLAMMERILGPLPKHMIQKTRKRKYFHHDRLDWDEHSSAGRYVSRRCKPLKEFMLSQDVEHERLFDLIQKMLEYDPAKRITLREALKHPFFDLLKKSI
Procedure, shortened: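 ADP formation was read by ADP-Glo luminescence after 1 h at 25° C with 3 ng human GST-CLK1 (129-end), substrate and 10 uM ATP in Tris pH 7.4 buffer containing MgCl2, BSA and DTT. Inhibition relative to untreated solvent control gave IC50 (nM), run in triplicate.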

[6] = target: LRRK2 (Homo sapiens, UniProt Q5S007); test: LRRK2 enzyme inhibition, ADP-Glo kinase assay; type: biochemical; set-up: purchased Invitrogen PR8604B
LRRK2, sequence (Q5S007 970-2527 limits assumed): as the sequence (Q5S007 970-2527 G2019S limits assumed) above, with S1050G counted along it
Procedure, shortened: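 ADP-Glo luminescence read after 2 h at 25° C, 10 μM ATP, 25 ng purified human LRRK2 and […] substrate in Tris-HCl pH7.4 buffer with MgCl2, BSA, DTT. Twelve final concentrations, 50 μM down to 0.000001024 μM; IC50 (nM) from inhibition relative to untreated solvent control.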

Row | SMILES | IC50 [1] | IC50 [2] | inhibition at 0.5 µM [3] | inhibition at 0.5 µM [4] | IC50 [5] | IC50 [6]
1 | CCNc1cc(Nc2ccc(C(=O)N3CCN(CCO)CC3)c3c2OCC3)nc2[nH]cc(C(F)(F)F)c12 [Example 253, (7-((4-(ethylamino)-3-(trifluoromethyl)-1H-pyrrolo[2,3-b]pyridin-6-yl)amino)-2,3-dihydrobenzofuran-4-yl)(4-(2-hydroxyethyl)piperazin-1-yl)methanone] | < 100 nM | < 100 nM | 9.83% | 49.2% | < 100 nM | –
2 | COCCNc1cc(Nc2ccc(C(=O)N3CCOCC3)c3c2OCC3)nc2[nH]cc(C(F)(F)F)c12 [Example 54, (7-((4-((2-methoxyethyl)amino)-3-(trifluoromethyl)-1H-pyrrolo[2,3-b]pyridin-6-yl)amino)-2,3-dihydrobenzofuran-4-yl)(morpholino) methanone] | < 100 nM | < 100 nM | – | 46.9% | < 100 nM | < 100 nM
3 | CNc1cc(Nc2ccc(C(=O)N3CCOCC3)c3c2OCO3)nc2[nH]cc(C(F)(F)F)c12 [Example 38, (7-((4-(methylamino)-3-(trifluoromethyl)-1H-pyrrolo[2,3-b]pyridin-6-yl)amino)benzo [d] [1,3]dioxol-4-yl)(morpholino) methanone] | < 100 nM | < 100 nM | 32.8% | 36.1% | < 100 nM | 101 to 300 nM
4 | CCNc1cc(Nc2ccc(C(=O)N3CC[C@@H](N4CCOCC4)C3)c3c2OCC3)nc2[nH]cc(C(F)(F)F)c12 [Example 213, (R)-(7-((4-(ethylamino)-3-(trifluoromethyl)-1H-pyrrolo[2,3-b]pyridin-6-yl)amino)-2,3-dihydrobenzofuran-4-yl)(3-morpholinopyrrolidin-1-yl)methanone] | 101 to 300 nM | 101 to 300 nM | 2.6% | 3.9% | < 100 nM | 101 to 300 nM
5 | CNc1cc(Nc2ccc(C(=O)N3CCC(N4CCOCC4)CC3)c3c2OCO3)nc2[nH]cc(C(F)(F)F)c12 [Example 235, (7-((4-(methylamino)-3-(trifluoromethyl)-1H-pyrrolo[2,3-b]pyridin-6-yl)amino)benzo[d][1,3]dioxol-4-yl)(4-morpholinopiperidin-1-yl)methanone] | < 100 nM | – | 36.3% | 22.9% | < 100 nM | < 100 nM
6 | CS(=O)(=O)CCNc1cc(Nc2ccc(C(=O)N3CCOCC3)c3c2OCCO3)nc2[nH]cc(C(F)(F)F)c12 [Example 157, (8-((4-((2-(methylsulfonyl)ethyl)amino)-3-(trifluoromethyl)-1H-pyrrolo[2,3-b]pyridin-6-yl)amino)-2,3-dihydrobenzo [b] [1,4]dioxin-5-yl)(morpholino) methanone] | < 100 nM | < 100 nM | 31% | 29.1% | < 100 nM | < 100 nM
7 | CCNc1cc(Nc2ccc(C(=O)N3CCN(CC4CC4)CC3)c3c2OCC3)nc2[nH]cc(C(F)(F)F)c12 [Example 257, (4-(cyclopropylmethyl)piperazin-1-yl)(7-((4-(ethylamino)-3-(trifluoromethyl)-1H-pyrrolo[2,3-b]pyridin-6-yl)amino)-2,3-dihydrobenzofuran-4-yl)methanone] | < 100 nM | < 100 nM | 7.88% | 44% | < 100 nM | –
8 | CCNc1cc(Nc2ccc(C(=O)N3CCC(N4CCN(C5CC5)CC4)CC3)c3c2OCC3)nc2[nH]cc(C(F)(F)F)c12 [Example 264, (4-(4-cyclopropylpiperazin-1-yl)piperidin-1-yl)(7-((4-(ethylamino)-3-(trifluoromethyl)-1H-pyrrolo[2,3-b]pyridin-6-yl)amino)-2,3-dihydrobenzofuran-4-yl)methanone] | < 100 nM | < 100 nM | 11.2% | 45.5% | < 100 nM | –
